Values quoted from earlier work as cited in patent US8715625B1, “Natural oral care compositions” (The Clorox Company, priority 2010, dated 2014).

Tested on: plaque
Details: two tests conducted by Purdue University's Dental Science Research Group

Compound: C=C1C[C@@]23CC[C@H]4[C@@](C)(CCC[C@@]4(C)C(=O)O[C@@H]4O[C@H](CO)[C@@H](O)[C@H](O)[C@H]4O)[C@@H]2CC[C@]1(O[C@@H]1O[C@H](CO)[C@@H](O)[C@H](O)[C@H]1O[C@@H]1O[C@H](CO)[C@@H](O)[C@H](O)[C@H]1O)C3 [Stevioside]
- development of plaque: “significantly” inhibits the development of plaque
